The text below walks through data of patent publication US20230348424A1, “HETEROCYCLIC COMPOUNDS AND METHODS OF USE” (Schrödinger, Inc., priority 2022, published 2023).

For this assay, the target named is SOS1:KRAS (G12C) interaction (Homo sapiens (Human), UniProt Q07889). Briefly: SOS1 KRas(G12C) FRET Assay. The conditions noted are these: 0.5 nM His10-SOS1 (res. 564-1049), 2.5 nM GST-KRAS G12C (res. 1-169), 2 hrs at RT. Format: binding. Summed up:
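GST-KRAS G12C (res. 1-169) at 2.5 nM and His10-SOS1 (res. 564-1049) at 0.5 nM, final, in PBS with 0.1% BSA, 5 mM MgCl2, 100 mM KF, 5 mM DTT and 0.5% DMSO. After 2 h at RT, FRET read at 665/615 nm and normalized to DMSO and no-SOS1 controls. IC50 by non-linear regression.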

Molecules are shown by their SMILES.

What is called IC50 is the concentration needed to halve the response being measured.

Sequence of SOS1:KRAS (G12C) interaction (Q07889 564-1049, stated change not applied): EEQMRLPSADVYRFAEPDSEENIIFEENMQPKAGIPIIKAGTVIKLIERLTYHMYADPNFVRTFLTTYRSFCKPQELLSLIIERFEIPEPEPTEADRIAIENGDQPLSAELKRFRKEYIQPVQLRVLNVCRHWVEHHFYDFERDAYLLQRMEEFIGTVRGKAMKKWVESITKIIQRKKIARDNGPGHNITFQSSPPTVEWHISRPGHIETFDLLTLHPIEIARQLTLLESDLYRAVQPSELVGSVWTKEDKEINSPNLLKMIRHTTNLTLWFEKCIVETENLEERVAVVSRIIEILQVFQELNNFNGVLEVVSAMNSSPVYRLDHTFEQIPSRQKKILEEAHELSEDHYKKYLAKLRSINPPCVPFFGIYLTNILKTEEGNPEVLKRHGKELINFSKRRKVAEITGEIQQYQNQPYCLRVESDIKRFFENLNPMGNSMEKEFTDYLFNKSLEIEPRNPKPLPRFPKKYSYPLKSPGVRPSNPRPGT

Compound `Cc1c([C@@H](C)NC(=O)c2cn(C3CCOCC3)c(=O)c(Br)c2NC2CCN(C)CC2)cccc1C(F)(F)F` [Example 17, (R)-5-bromo-N-(1-(2-methyl-3-(trifluoromethyl)phenyl)ethyl)-4-((1-methylpiperidin-4-yl)amino)-6-oxo-1-(tetrahydro-2H-pyran-4-yl)-1,6-dihydropyridine-3-carboxamide] gave an IC50 of 717 nM. Regarding `COc1c(NC2CCN(C)CC2)c(C(=O)N[C@H](C)c2cccc(C(F)(F)F)c2C)cn(C2CCOCC2)c1=O` [Example 18, (R)-5-methoxy-N-(1-(2-methyl-3-(trifluoromethyl)phenyl)ethyl)-4-((1-methylpiperidin-4-yl)amino)-6-oxo-1-(tetrahydro-2H-pyran-4-yl)-1,6-dihydropyridine-3-carboxamide], the IC50 stood at 77.8 nM. For the compound `Cc1c([C@@H](C)NC(=O)c2cn(C3CCOCC3)c(=O)c(C)c2NC2CCN(C)CC2)cccc1C(F)(F)F` [Example 19, (R)-5-methyl-N-(1-(2-methyl-3-(trifluoromethyl)phenyl)ethyl)-4-((1-methylpiperidin-4-yl)amino)-6-oxo-1-(tetrahydro-2H-pyran-4-yl)-1,6-dihydropyridine-3-carboxamide], the IC50 stood at 347 nM. The compound `Cc1c([C@@H](C)NC(=O)c2cn(C3CCOCC3)c(=O)cc2N[C@H]2C[C@@H](N(C)C)C2)cccc1C(F)(F)F` [Example 27] gave an IC50 of 21.8 nM. `Cc1c([C@@H](C)NC(=O)c2cn(C3CCOCC3)c(=O)cc2NC2CN(C)C2)cccc1C(F)(F)F` [Example 28, (R)-N-(1-(2-methyl-3-(trifluoromethyl)phenyl)ethyl)-4-((1-methylazetidin-3-yl)amino)-6-oxo-1-(tetrahydro-2H-pyran-4-yl)-1,6-dihydropyridine-3-carboxamide] had an IC50 of 59.2 nM. In the case of `Cc1c([C@@H](C)NC(=O)c2cn(C3CCOCC3)c(=O)cc2NCC2(F)CN(C)C2)cccc1C(F)(F)F` [Example 30, (R)-4-(((3-fluoro-1-methylazetidin-3-yl)methyl)amino)-N-(1-(2-methyl-3-(trifluoromethyl)phenyl)ethyl)-6-oxo-1-(tetrahydro-2H-pyran-4-yl)-1,6-dihydropyridine-3-carboxamide] it was 36.3 nM. With `Cc1c([C@@H](C)NC(=O)c2cn(C3CCOCC3)c(=O)cc2N[C@H]2CCCCN(C)C2)cccc1C(F)(F)F` [Example 35, N-((R)-1-(2-methyl-3-(trifluoromethyl)phenyl)ethyl)-4-(((S)-1-methylazepan-3-yl)amino)-6-oxo-1-(tetrahydro-2H-pyran-4-yl)-1,6-dihydropyridine-3-carboxamide], the IC50 came out at 44 nM. For `Cc1c([C@@H](C)NC(=O)c2cn(C3CCOCC3)c(=O)cc2N[C@@H]2CCCCN(C)C2)cccc1C(F)(F)F` [Example 36, N-((R)-1-(2-methyl-3-(trifluoromethyl)phenyl)ethyl)-4-(((R)-1-methylazepan-3-yl)amino)-6-oxo-1-(tetrahydro-2H-pyran-4-yl)-1,6-dihydropyridine-3-carboxamide], half-maximal inhibition (IC50) required 30.8 nM.

Regarding `C[C@@H](NC(=O)c1cn(C2CCOCC2)c(=O)cc1NC1CCN(C)CC1)c1cccc(C(F)F)c1F` [Example 41, (R)-N-(1-(3-(difluoromethyl)-2-fluorophenyl)ethyl)-4-((1-methylpiperidin-4-yl)amino)-6-oxo-1-(tetrahydro-2H-pyran-4-yl)-1,6-dihydropyridine-3-carboxamide], the IC50 was found to be 7.8 nM. `Cc1c([C@@H](C)NC(=O)c2cn(C3CCOCC3)c(=O)cc2NC2CNC2)cccc1C(F)(F)F` [Example 43, (R)-4-(azetidin-3-ylamino)-N-(1-(2-methyl-3-(trifluoromethyl)phenyl)ethyl)-6-oxo-1-(tetrahydro-2H-pyran-4-yl)-1,6-dihydropyridine-3-carboxamide] gave an IC50 of 75.7 nM. `Cc1c([C@@H](C)NC(=O)c2cn(C3CCOCC3)c(=O)cc2NC2CCNC2)cccc1C(F)(F)F` (stereo partly drawn) [Example 44, N-((R)-1-(2-methyl-3-(trifluoromethyl)phenyl)ethyl)-6-oxo-4-(pyrrolidin-3-ylamino)-1-(tetrahydro-2H-pyran-4-yl)-1,6-dihydropyridine-3-carboxamide] showed an IC50 of 34.6 nM. Turning to `Cc1c([C@@H](C)NC(=O)c2cn(C3CCOCC3)c(=O)cc2NCCONC(=N)N)cccc1C(F)(F)F` [Example 46, (R)-4-((2-(guanidinooxy)ethyl)amino)-N-(1-(2-methyl-3-(trifluoromethyl)phenyl)ethyl)-6-oxo-1-(tetrahydro-2H-pyran-4-yl)-1,6-dihydropyridine-3-carboxamide], the IC50 was 18.2 nM. The value for `C[C@@H](NC(=O)c1cn(C2(C(F)F)CC2)c(=O)cc1NC1CCN(C)CC1)c1cccc2c1OCC2(F)F` [Example 53, (R)-N-(1-(3,3-difluoro-2,3-dihydrobenzofuran-7-yl)ethyl)-1-(1-(difluoromethyl)cyclopropyl)-4-((1-methylpiperidin-4-yl)amino)-6-oxo-1,6-dihydropyridine-3-carboxamide] was 15.6 nM; that for `C[C@@H](NC(=O)c1cn(C2(C(F)F)CC2)c(=O)cc1NC1CCN(C)CC1)c1cccc2c(F)coc12` [Example 54, (R)-1-(1-(difluoromethyl)cyclopropyl)-N-(1-(3-fluorobenzofuran-7-yl)ethyl)-4-((1-methylpiperidin-4-yl)amino)-6-oxo-1,6-dihydropyridine-3-carboxamide] was 26.6 nM. In the case of `C[C@@H](NC(=O)c1cn(C2(C(F)F)CC2)c(=O)cc1N[C@@H]1[C@@H]2CN(C)C[C@@H]21)c1cccc(C(F)F)c1F` [Example 56, N-((R)-1-(3-(difluoromethyl)-2-fluorophenyl)ethyl)-1-(1-(difluoromethyl)cyclopropyl)-4-(((1R,5S,6r)-3-methyl-3-azabicyclo[3.1.0]hexan-6-yl)amino)-6-oxo-1,6-dihydropyridine-3-carboxamide], it took 34.2 nM to reach half-maximal inhibition (IC50). The value for `[2H]C([2H])([2H])N1C[C@@H]2[C@H](C1)[C@H]2Nc1cc(=O)n(C2(C(F)F)CC2)cc1C(=O)N[C@H](C)c1cccc(C(F)F)c1F` [Example 57, N-((R)-1-(3-(difluoromethyl)-2-fluorophenyl)ethyl)-1-(1-(difluoromethyl)cyclopropyl)-4-(((1R,5S,6s)-3-(methyl-d3)-3-azabicyclo[3.1.0]hexan-6-yl)amino)-6-oxo-1,6-dihydropyridine-3-carboxamide] was 28.2 nM; that for `CCN1C[C@@H]2[C@H](C1)[C@H]2Nc1cc(=O)n(C2(C(F)F)CC2)cc1C(=O)N[C@H](C)c1cccc(C(F)F)c1F` [Example 58, N-((R)-1-(3-(difluoromethyl)-2-fluorophenyl)ethyl)-1-(1-(difluoromethyl)cyclopropyl)-4-(((1R,5S,6s)-3-ethyl-3-azabicyclo[3.1.0]hexan-6-yl)amino)-6-oxo-1,6-dihydropyridine-3-carboxamide] was 30.8 nM; that for `CC(C)N1C[C@@H]2[C@H](C1)[C@H]2Nc1cc(=O)n(C2(C(F)F)CC2)cc1C(=O)N[C@H](C)c1cccc(C(F)F)c1F` [Example 59, N-((R)-1-(3-(difluoromethyl)-2-fluorophenyl)ethyl)-1-(1-(difluoromethyl)cyclopropyl)-4-(((1R,5S,6s)-3-isopropyl-3-azabicyclo[3.1.0]hexan-6-yl)amino)-6-oxo-1,6-dihydropyridine-3-carboxamide] was 31.5 nM. As to `C[C@@H](NC(=O)c1cn(C2(C(F)F)CC2)c(=O)cc1N[C@H]1[C@@H]2CN(C3CC3)C[C@@H]21)c1cccc(C(F)F)c1F` [Example 60, 4-(((1R,5S,6s)-3-cyclopropyl-3-azabicyclo[3.1.0]hexan-6-yl)amino)-N-((R)-1-(3-(difluoromethyl)-2-fluorophenyl)ethyl)-1-(1-(difluoromethyl)cyclopropyl)-6-oxo-1,6-dihydropyridine-3-carboxamide], the IC50 was determined as 41.2 nM. Consider `C[C@@H](NC(=O)c1cn(C2(C(F)F)CC2)c(=O)cc1NC1CCN(C2CC2)CC1)c1cccc(C(F)F)c1F` [Example 62, (R)-4-((1-cyclopropylpiperidin-4-yl)amino)-N-(1-(3-(difluoromethyl)-2-fluorophenyl)ethyl)-1-(1-(difluoromethyl)cyclopropyl)-6-oxo-1,6-dihydropyridine-3-carboxamide], for which 20.1 nM corresponded to half-maximal inhibition (IC50). As for `C[C@@H](NC(=O)c1cn([C@@H]2C[C@H]2C2CC2)c(=O)cc1N[C@H]1[C@@H]2CN(C)C[C@@H]21)c1cccc(C(F)F)c1F` [Example 71, 1-((1S,2R)-[1,1′-bi(cyclopropan)]-2-yl)-N-((R)-1-(3-(difluoromethyl)-2-fluorophenyl)ethyl)-4-(((1R5S,6s)-3-methyl-3-azabicyclo[3.1.0]hexan-6-yl)amino)-6-oxo-1,6-dihydropyridine-3-carboxamide], the IC50 worked out at 21.9 nM.

Take `C[C@@H](NC(=O)c1cn(C2(C(F)(F)F)CC2)c(=O)cc1NC1CCN(C)CC1)c1cccc(C(F)F)c1F` [Example 75, (R)-N-(1-(3-(difluoromethyl)-2-fluorophenyl)ethyl)-4-((1-methylpiperidin-4-yl)amino)-6-oxo-1-(1-(trifluoromethyl)cyclopropyl)-1,6-dihydropyridine-3-carboxamide]: the IC50 worked out at 15.5 nM. Take `C[C@@H](NC(=O)c1cn(C2(C(F)F)CCC2)c(=O)cc1NC1CCN(C)CC1)c1cccc(C(F)F)c1F` [Example 76, (R)-N-(1-(3-(difluoromethyl)-2-fluorophenyl)ethyl)-1-(1-(difluoromethyl)cyclobutyl)-4-((1-methylpiperidin-4-yl)amino)-6-oxo-1,6-dihydropyridine-3-carboxamide]: the IC50 worked out at 12.5 nM. In turn, `C[C@@H](NC(=O)c1cn(C2(CF)CC2)c(=O)cc1NC1CCN(C)CC1)c1cccc(C(F)F)c1F` [Example 77, (R)-N-(1-(3-(difluoromethyl)-2-fluorophenyl)ethyl)-1-(1-(fluoromethyl)cyclopropyl)-4-((1-methylpiperidin-4-yl)amino)-6-oxo-1,6-dihydropyridine-3-carboxamide] returned a concentration for half-maximal inhibition (IC50) of 13.7 nM.
